Measured values taken from ChEMBL document CHEMBL4354830, “Discovery of Benzo[cd]indol-2(1H)-ones and Pyrrolo[4,3,2-de]quinolin-2(1H)-ones as Bromodomain and Extra-Terminal Domain (BET) Inhibitors with Selectivity for the First Bromodomain with Potential High Efficiency against Acute Gouty Arthritis” (J Med Chem, 2019).

Experiments:
Peregrin = biological target: T1, Peregrin (Homo sapiens, UniProt P55201); assay: Displacement of tetra-acetylated histone H4 peptide (1-21) from BRPF1b (unknown origin) incubated for 30 mins followed by further incubation with tetra-acetylated histone H4 peptide (1-21) for 30 mins by Alphascreen assay
T1 sequence (P55201 whole entry): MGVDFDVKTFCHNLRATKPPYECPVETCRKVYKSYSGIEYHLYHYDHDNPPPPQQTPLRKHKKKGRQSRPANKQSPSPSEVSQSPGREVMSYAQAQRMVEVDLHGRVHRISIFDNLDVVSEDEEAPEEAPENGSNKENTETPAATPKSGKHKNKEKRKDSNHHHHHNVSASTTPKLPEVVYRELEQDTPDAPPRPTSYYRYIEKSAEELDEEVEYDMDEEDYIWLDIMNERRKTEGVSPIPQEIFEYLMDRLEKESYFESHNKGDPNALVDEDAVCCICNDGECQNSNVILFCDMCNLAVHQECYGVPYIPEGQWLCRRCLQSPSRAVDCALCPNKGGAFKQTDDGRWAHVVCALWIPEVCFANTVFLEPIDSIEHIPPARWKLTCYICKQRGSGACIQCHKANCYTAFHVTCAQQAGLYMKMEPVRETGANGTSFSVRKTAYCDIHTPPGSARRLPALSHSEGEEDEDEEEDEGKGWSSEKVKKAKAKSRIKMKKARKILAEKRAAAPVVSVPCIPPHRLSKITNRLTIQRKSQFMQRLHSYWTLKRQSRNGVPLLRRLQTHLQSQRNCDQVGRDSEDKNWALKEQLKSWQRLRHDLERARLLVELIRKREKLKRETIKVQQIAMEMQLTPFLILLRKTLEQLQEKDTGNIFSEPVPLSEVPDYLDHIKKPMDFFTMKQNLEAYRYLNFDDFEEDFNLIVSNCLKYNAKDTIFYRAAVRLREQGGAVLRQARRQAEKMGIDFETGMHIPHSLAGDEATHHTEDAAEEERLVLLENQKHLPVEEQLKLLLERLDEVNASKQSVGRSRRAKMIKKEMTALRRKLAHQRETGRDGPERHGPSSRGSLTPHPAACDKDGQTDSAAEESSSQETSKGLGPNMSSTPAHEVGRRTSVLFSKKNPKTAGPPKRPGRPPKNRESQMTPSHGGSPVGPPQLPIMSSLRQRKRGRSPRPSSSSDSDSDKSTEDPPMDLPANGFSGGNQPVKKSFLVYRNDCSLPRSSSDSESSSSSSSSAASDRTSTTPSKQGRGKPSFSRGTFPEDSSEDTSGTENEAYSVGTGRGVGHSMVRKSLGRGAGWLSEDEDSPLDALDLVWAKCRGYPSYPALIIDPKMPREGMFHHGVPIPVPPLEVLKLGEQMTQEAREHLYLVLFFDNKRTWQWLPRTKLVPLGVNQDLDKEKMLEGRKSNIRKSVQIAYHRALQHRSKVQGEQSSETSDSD

Rattus norvegicus = assay: In vivo inhibition of MSU-induced pyroptosis in Sprague-Dawley rat model of acute gout arthritis assessed as caspase+/PI+ macrophage cells in synovial tissue at 1 mg/kg, ia administered 1 hr before MSU challenge and measured upto 24 hrs by PI staining based flow cytometric analysis (reference value: 5.79 %); assay type: functional; parameters: scale not given: the % may be the effect or the level left

IC50 (Peregrin): 568 nM
Compound: COc1ccccc1S(=O)(=O)Nc1ccc2c3c(cc(-n4cnc(C)c4)nc13)C(=O)N2C
Activity (Rattus norvegicus): 1.03%
